Results on 1 compound are retold here after ChEMBL document CHEMBL3797141, “Design, synthesis and preliminary biological evaluation of 4-aminopyrazole derivatives as novel and potent JAKs inhibitors” (Bioorg Med Chem, 2016).

For assay [1], the target named is Tyrosine-protein kinase JAK2 (Homo sapiens, UniProt O60674). Also on record: species or system Sf21.
Assay [2] deals with Tyrosine-protein kinase JAK1 (Homo sapiens, UniProt P23458).
Assay [3] deals with T1, Tyrosine-protein kinase JAK3 (Homo sapiens, UniProt P52333).
T1 sequence (P52333 whole entry): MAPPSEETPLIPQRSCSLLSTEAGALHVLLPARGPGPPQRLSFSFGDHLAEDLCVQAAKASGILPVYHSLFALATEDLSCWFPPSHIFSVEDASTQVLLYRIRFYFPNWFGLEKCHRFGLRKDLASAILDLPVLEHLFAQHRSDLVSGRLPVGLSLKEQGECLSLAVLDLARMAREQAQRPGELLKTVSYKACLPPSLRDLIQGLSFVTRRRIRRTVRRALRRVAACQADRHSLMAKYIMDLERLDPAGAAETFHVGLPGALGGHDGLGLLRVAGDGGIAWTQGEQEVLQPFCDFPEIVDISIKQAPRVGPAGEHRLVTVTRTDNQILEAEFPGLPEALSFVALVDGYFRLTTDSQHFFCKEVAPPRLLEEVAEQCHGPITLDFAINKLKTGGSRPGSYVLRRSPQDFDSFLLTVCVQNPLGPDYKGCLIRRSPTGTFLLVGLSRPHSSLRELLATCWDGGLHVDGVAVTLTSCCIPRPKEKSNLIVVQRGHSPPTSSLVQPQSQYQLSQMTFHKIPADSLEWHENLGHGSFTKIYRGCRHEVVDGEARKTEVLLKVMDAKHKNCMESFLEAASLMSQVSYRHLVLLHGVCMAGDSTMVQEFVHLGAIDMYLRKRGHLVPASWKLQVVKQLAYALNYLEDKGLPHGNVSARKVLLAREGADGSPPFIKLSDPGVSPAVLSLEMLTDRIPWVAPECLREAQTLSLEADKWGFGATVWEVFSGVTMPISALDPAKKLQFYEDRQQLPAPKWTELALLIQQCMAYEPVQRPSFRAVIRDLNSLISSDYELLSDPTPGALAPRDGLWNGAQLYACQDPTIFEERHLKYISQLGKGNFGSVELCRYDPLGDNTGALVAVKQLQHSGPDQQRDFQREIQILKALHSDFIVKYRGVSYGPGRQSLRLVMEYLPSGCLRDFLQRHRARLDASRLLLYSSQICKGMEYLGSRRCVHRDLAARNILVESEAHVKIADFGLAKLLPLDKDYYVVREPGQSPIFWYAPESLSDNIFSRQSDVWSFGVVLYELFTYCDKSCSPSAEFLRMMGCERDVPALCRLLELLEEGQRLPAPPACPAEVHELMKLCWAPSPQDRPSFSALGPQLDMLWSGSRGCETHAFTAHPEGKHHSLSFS

Sequence of Tyrosine-protein kinase JAK1 (P23458 whole entry): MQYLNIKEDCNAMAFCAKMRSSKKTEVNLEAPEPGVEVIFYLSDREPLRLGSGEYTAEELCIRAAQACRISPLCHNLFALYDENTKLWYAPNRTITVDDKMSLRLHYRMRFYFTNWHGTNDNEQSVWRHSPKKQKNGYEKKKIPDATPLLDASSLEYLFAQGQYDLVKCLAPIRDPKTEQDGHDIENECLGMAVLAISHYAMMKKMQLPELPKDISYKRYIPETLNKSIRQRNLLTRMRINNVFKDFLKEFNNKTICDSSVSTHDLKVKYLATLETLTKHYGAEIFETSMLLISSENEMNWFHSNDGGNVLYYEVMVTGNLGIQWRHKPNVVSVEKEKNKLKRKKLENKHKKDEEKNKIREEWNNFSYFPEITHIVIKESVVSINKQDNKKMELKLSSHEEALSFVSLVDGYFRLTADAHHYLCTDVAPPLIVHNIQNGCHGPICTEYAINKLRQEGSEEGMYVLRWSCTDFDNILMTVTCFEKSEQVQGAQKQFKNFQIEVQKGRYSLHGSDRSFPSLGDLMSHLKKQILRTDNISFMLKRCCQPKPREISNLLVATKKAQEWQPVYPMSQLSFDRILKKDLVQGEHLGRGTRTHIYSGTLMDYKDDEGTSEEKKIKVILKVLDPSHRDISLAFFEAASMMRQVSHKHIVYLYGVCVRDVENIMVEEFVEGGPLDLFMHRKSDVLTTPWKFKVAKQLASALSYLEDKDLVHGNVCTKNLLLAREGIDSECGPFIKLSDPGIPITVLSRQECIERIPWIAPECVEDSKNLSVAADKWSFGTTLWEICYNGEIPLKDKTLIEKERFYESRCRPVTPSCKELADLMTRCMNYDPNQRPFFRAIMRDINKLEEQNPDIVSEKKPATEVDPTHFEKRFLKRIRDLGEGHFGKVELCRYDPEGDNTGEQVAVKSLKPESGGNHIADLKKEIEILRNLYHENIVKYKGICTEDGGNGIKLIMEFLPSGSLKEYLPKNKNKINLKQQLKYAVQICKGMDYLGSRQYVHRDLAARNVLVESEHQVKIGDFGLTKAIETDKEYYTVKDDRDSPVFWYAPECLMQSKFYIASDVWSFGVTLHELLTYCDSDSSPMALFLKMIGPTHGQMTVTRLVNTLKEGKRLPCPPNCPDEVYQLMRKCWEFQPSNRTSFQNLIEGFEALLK
Sequence of Tyrosine-protein kinase JAK2 (O60674 whole entry): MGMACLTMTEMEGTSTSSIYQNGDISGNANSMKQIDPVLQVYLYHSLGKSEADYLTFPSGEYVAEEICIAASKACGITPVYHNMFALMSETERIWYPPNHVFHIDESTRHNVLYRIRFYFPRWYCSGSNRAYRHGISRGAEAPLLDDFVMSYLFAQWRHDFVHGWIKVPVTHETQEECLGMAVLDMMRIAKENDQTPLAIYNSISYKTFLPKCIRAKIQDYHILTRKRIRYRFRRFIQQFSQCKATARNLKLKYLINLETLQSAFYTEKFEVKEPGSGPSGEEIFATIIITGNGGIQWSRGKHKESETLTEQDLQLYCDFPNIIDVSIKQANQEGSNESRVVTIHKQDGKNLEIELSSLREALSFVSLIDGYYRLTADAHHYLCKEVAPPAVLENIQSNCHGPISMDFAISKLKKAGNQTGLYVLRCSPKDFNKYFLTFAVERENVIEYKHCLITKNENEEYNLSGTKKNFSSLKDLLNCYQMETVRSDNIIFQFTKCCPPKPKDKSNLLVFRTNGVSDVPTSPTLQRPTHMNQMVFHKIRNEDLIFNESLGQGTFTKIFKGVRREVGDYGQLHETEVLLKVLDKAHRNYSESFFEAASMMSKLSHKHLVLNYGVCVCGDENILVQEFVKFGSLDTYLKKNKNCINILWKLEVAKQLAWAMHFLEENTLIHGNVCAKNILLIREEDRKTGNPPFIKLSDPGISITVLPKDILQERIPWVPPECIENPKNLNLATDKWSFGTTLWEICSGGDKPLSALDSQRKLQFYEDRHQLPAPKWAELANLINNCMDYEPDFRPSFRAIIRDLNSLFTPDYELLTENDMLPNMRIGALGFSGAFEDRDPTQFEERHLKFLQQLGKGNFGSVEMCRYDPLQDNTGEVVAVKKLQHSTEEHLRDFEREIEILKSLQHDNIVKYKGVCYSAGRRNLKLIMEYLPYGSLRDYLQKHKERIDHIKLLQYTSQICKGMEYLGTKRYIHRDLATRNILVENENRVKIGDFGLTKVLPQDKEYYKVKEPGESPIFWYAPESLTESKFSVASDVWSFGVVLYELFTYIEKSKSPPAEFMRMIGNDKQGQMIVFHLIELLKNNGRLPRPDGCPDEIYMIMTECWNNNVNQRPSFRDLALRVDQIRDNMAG

One may read the IC50 as the midpoint of a concentration-inhibition curve. A higher IC50 goes with lower potency. Regarding `CNc1nc(Nc2cnn(C(CC(N)=O)C3CCCCC3)c2)ncc1C(F)(F)F` (stereo not drawn), the values for the concentration for half-maximal inhibition (IC50) in assay [1], in assay [2] and in assay [3] were 98 nM, 670 nM and 39 nM, respectively.
